Patent US7575910B2, “Method for producing L-fuculose and method for producing L-fucose” (priority 2004, dated 2009)
Where two headings read alike, the source gives them in different places.

Tests used:
FcDH [1] = target: T1, FcDH (Gluconobacter thailandicus, UniProt A0ABQ0IZX0); experiment: Bivalent metal ion specificity of FcDH; format: biochemical, Gluconobacter oxydans IFO 3255
FcDH [2] = target: T1, FcDH; experiment: Oxidation products of substrates by purified FcDH, HPLC; format: biochemical, Gluconobacter oxydans IFO 3255; settings: 0.5 g/dl substrate, NOX, catalase, 30° C., 16 hours
Experimental: Among the substrates recognized by FcDH, the oxidation product of L-fucitol is L-fuculose, and the oxidation products of the other substrates were examined. The substrates used were D-arabitol, D-mannitol and D-sorbitol. A reaction solution containing 0.5 g/dl of the substrate, 50 mM Gly-NaOH (pH 9.5), 1 mM NAD, 30 mM FAD, 5 mM MgCl2, 0.6 U/ml purified FcDH, 0.2 U/ml NOX, and 0.1 mg/ml catalase was reacted at 30° C. for 16 hours, and analyzed by HPLC (FIG. 13).

[3] = target: T2, FcDH (L-fuculose-producing L-fucitol dehydrogenase) (Gluconobacter thailandicus, UniProt A0ABQ0IZX0); experiment: Substrate specificity of purified FcDH (kcat, Km by Lineweaver-Burk plot); format: biochemical, Gluconobacter oxydans IFO 3255; settings: for substrate concentration at which a reduction of the specific activity (inhibition by the substrate) was observed: FIG. 12
T2 sequence (A0ABQ0IZX0 1-257): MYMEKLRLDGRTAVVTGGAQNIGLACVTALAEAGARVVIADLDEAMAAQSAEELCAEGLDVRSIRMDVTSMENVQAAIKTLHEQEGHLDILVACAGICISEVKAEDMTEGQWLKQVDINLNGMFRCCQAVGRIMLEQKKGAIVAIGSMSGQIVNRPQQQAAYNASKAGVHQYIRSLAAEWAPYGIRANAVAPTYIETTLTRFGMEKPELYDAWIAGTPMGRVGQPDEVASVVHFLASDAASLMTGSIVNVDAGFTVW
Experimental: The measurement was started when NAD was added. […] The measurement was performed consecutively three times.
Values of kcat and Km for each substrate were obtained by measuring the initial rate of the reaction with various substrate concentrations and drawing a Lineweaver-Burk plot of the results.
Lineweaver-Burk plots of the results in (A) and (B) are shown in FIG. 12 (C) and (D), respectively. The Km and kcat values were calculated from the range in which substrate inhibition was not observed, i.e., from a straight line represented by a broken line in FIG. 12 (C) and (D).

NOX (NADH oxidase) = NOX (NADH oxidase) (Gluconobacter thailandicus, UniProt A0ABQ0IUG6); experiment: NOX activity: NADH/NADPH and flavin coenzyme specificity; format: biochemical, Gluconobacter oxydans IFO 3255; settings: for NOX activation effect of flavin coenzyme: flavin 0 to 300 μM, FIG. 19
Experimental: (§1) The change in absorbance in the first minute was taken as an initial rate, and the activity was calculated therefrom. The experimental group without the enzyme source was used as a blank. […] The measurement was taken three consecutive times. Their mean value was taken and is shown in the figure with the standard deviation.
The concentration of flavin in the reaction solution was 0 to 300 μM, and the others were adjusted to standard conditions.
The Km value for the substrate was calculated by measuring the activity with a variety of substrate concentrations and drawing a Lineweaver-Burk plot of the results.

[4] = system: L-fucitol dehydrogenase in cell free extract of G. oxydans IFO 3255 sldA:Kmr mutant strain; experiment: NAD(P)-dependent L-fucitol oxidation activity in cell free extract; format: biochemical, Gluconobacter oxydans IFO 3255 sldA:Kmr
Experimental: Subsequently, 1 ml of the medium was added to 50 ml of the same liquid medium, and cultured at 30° C. for 18 hours using a 500 ml Sakaguchi flask. The microbial cells were collected by centrifuging this medium, washed with 9 g/l of NaCl, and sonicated with 200 W for 10 minutes to yield the disrupted microbial cells. These cells were further centrifuged at 15,000 g for 15 minutes to yield the supernatant, which was then used as a cell-free extract. […] The experiment was also performed without L-fucitol as the control.

[5] = Experimental: as §1
As pH buffers, sodium citrate buffer (pH 3.6, 4.7, 5.7), sodium acetate buffer (pH 4.8, 5.7), potassium phosphate buffer (pH 6.4, 7.2), Tris-HCl buffer (pH 6.7, 7.6, 8.5), and CAPS-NaOH buffer (pH 8.3, 9.5) were used.
(§2) The activity of the purified preparations of rFcDH and rNOX that had been purified as described above was also measured.

[6] = substrate: NC(=O)c1ccc[n+]([C@@H]2O[C@H](COP(=O)([O-])OP(=O)(O)OC[C@H]3O[C@@H](n4cnc5c(N)ncnc54)[C@H](O)[C@@H]3O)[C@@H](O)[C@H]2O)c1; experiment: NAD and NADP specificity of FcDH; format: biochemical, Gluconobacter oxydans IFO 3255; settings: other: FcDH, Lineweaver-Burk plot, FIG. 14; pH 9.5; 30.0 °C
Experimental: The activity was measured by adding NAD or NADP at various concentrations under standard conditions. The Km value for each coenzyme was calculated by drawing a Lineweaver-Burk plot of the results (FIG. 14 (B)).

[7] = remark: listed apart in the source
Experimental: The measurement was started when NAD was added. The change in absorbance in the first minute was taken as the initial rate, and the activity was calculated therefrom. […] The measurement was performed consecutively three times. Their mean value was taken and is shown in the figure with the standard deviation.
As pH buffers, sodium acetate buffer (pH 4.8, 5.7), potassium phosphate buffer (pH 6.4, 7.2), Tris-HCl buffer (pH 6.7, 7.6, 8.5), CAPS-NaOH buffer (Sodium cyclohexylaminopropanesulfonate) (pH 8.3, 9.5) and sodium carbonate buffer (pH 10.1, 10.7, 11.2) were used.
A solution containing 0.1M pH buffer and 80 μg/ml purified FcDH was left to stand on ice for 30 minutes, and subsequently the solution was diluted to a final FcDH concentration of 1.6 μg/ml. The reaction was performed under standard conditions, and the remaining FcDH activity was measured.
A solution containing Gly-NaOH (pH 9.5), MgCl2, fucitol, and purified FcDH was preincubated at each temperature (25, 30, 37, 45, 55, or 65° C.) for 3 minutes, and then NAD that had been separately preincubated at each temperature was added thereto to start the reaction. The final concentrations in the reaction solution were adjusted to the standard conditions for activity measurement, and the final concentration of FcDH was 1.6 μg/ml.
A solution containing Gly-NaOH (pH 9.5) and 80 μg/ml purified FcDH was left to stand at 0, 25, 30, 37, 50 or 60° C. for 30 minutes. The solution was then diluted so that the final concentration of FcDH was 1.6 μg/ml. The reaction was performed under standard conditions, and the remaining FcDH activity was measured. The remaining activity of FcDH measured at each temperature is reported (FIG. 11) as the relative percentage as compared to the remaining activity when left to stand at 0° C.
as §2

[8] = 5 mM bivalent metal ion or EDTA
[9] = 5 mM bivalent metal ion or EDTA, relative to specific activity with MnCl2
[10] = substrate, Lineweaver-Burk plot

With [Ca+2].[Cl-].[Cl-] [CaCl2] the “effect on FcDH activity” value (FcDH [1]; [8]) was “activation effect” and the “RELATIVE ACTIVITY (%)” value (FcDH [1]; [9]) was 89.9 ± 3.4%.

With [Cl-].[Cl-].[Co+2] [CoCl2] the “RELATIVE ACTIVITY (%)” value (FcDH [1]) was 34.8 ± 1.1% and the “effect on FcDH activity” value (FcDH [1]) was “no effect”.

In the case of [Cl][Cu][Cl] [CuCl2], the “effect on FcDH activity” value (FcDH [1]; [8]) is reported as “inhibitory effect” and the “RELATIVE ACTIVITY (%)” value (FcDH [1]; [9]) is reported as 5.0 ± 0.5%.

With OC[C@@H](O)C(O)[C@H](O)CO [D-ARABITOL, D-arabitol] the “oxidation product identified by HPLC” value (FcDH [2]) was “D-ribulose and D-xylulose” and the “substrate concentration at which a reduction of the specific activity (inhibition by the substrate) was observed” value [3] was ≥ 5 mM.

For OC[C@@H](O)[C@@H](O)[C@H](O)[C@H](O)CO [D-MANNITOL, D-mannitol], the “oxidation product identified by HPLC” value (FcDH [2]) was “D-fructose”.

For OC[C@@H](O)[C@@H](O)[C@H](O)[C@@H](O)CO [D-SORBITOL, D-sorbitol], the “oxidation product identified by HPLC” value (FcDH [2]) was “L-sorbose”.

For Cc1cc2nc3c(=O)[nH]c(=O)nc-3n(C[C@H](O)[C@H](O)[C@H](O)COP(=O)(O)O)c2cc1C [FMN], the “NOX activation effect of flavin coenzyme” value (NOX (NADH oxidase)) was “relatively weaker”.

Work on OCC(O)CO [GLYCEROL, glycerol] yielded a Kcat [3, 10] of 0.9 U · mg−1 and a Km [3, 10] of 10.1 mM.

In the case of C[C@H](O)[C@@H](O)[C@@H](O)[C@H](O)CO [L-FUCITOL, L-fucitol], the Dehydrogenase activity ([4]; coenzyme NAD, pH 6.0) is reported as 3.1 ×10^−3 U/mg, the Dehydrogenase activity ([4]; coenzyme NAD, pH 8.8) is reported as 18.4 ×10^−3 U/mg and the Dehydrogenase activity ([4]; coenzyme NADP, pH 6.0) is reported as 0.0 ×10^−3 U/mg. The Dehydrogenase activity ([4]; coenzyme NADP, pH 8.8) was 1.9 ×10^−3 U/mg and the “substrate concentration at which a reduction of the specific activity (inhibition by the substrate) was observed” value [3] was ≥ 100 mM.

With [Cl-].[Cl-].[Mg+2] [MgCl2] the “effect on FcDH activity” value (FcDH [1]; [8]) was “activation effect” and the “RELATIVE ACTIVITY (%)” value (FcDH [1]; [9]) was 93.7 ± 2.9%.

For [Cl][Mn][Cl] [MnCl2], the “effect on FcDH activity” value (FcDH [1]; [8]) was “activation effect” and the “RELATIVE ACTIVITY (%)” value (FcDH [1]; [9]) was 100.0 ± 6.9%.

For NC(=O)C1=CN([C@@H]2O[C@H](COP(=O)(O)OP(=O)(O)OC[C@H]3O[C@@H](n4cnc5c(N)ncnc54)[C@H](OP(=O)(O)O)[C@@H]3O)[C@@H](O)[C@H]2O)C=CC1 [NADPH], the “NOX activity with NADPH as the substrate” value (NOX (NADH oxidase); data not shown) was “no significant activity”.

For [Cl][Ni][Cl] [NiCl2], the “effect on FcDH activity” value (FcDH [1]; [8]) was “no effect” and the “RELATIVE ACTIVITY (%)” value (FcDH [1]; [9]) was 42.4 ± 0.7%.

For O=S(=O)([O-])[O-].[Zn+2] [ZnSO4], the “effect on FcDH activity” value (FcDH [1]; [8]) was “inhibitory effect” and the “RELATIVE ACTIVITY (%)” value (FcDH [1]; [9]) was 11.7 ± 0.5%.

With Cc1cc2nc3c(=O)[nH]c(=O)nc-3n(C[C@H](O)[C@H](O)[C@H](O)CO)c2cc1C [riboflavin] the “NOX activation effect of flavin coenzyme” value (NOX (NADH oxidase)) was “NOX activation effect was observed”.

B1: NOX: NADH oxidase purified from G. oxydans IFO 3255, SEQ ID NO:18 (protein)
chain: MTILNEQDFRRAMSHFATGVAVVTAKGSEGEQGATISALTSVSLDPLLLLICLHRGSSTYKAIAEAGRFGLSILNNSHKDVAMLFASRTADKFGSDVVVRAEDGTAFIDGALVQMHCELVETFQGGTHALFMARPTSITVRDEAPLLYFQGQLGVEA
modifications: Gluconobacter oxydans
With B1 the “remaining activity (temperature stability)” value ([5]; 0.5 h) was ≥ 80%, the “pH of maximum specific activity” value ([5]; FIG. 15, 30° C.) was 5.7 and the “temperature of maximum specific activity” value ([5]; FIG. 17, pH 8.0) was 37 °C. The “remaining activity (pH stability)” value ([5]; buffer, 0.5 h, pH 8.8) was ≥ 80% and the “specific activity of NOX” value ([5]; purified preparation, 0.2 mM NADH, 30 μM FAD, pH 8.0, 30° C.) was 196 U/mg.

B2: FcDH (Gluconobacter thailandicus NBRC 3257) (protein)
chain: T2 sequence (A0ABQ0IZX0 1-257)
For B2, the Km [6] was 0.20 mM.

B3: FcDH: L-fuculose-producing L-fucitol dehydrogenase purified from G. oxydans IFO 3255, SEQ ID NO:16 (protein)
chain: T2 sequence (A0ABQ0IZX0 1-257)
modifications: Gluconobacter oxydans
In the case of B3, the “remaining activity (temperature stability)” value ([7]; 0.5 h) is reported as ≥ 80%, the “pH of maximum specific activity” value ([7]; FIG. 8, 30° C.) is reported as 9.5 and the “temperature of maximum specific activity” value ([7]; FIG. 10, pH 9.5) is reported as 37 °C. For the same molecule, the “remaining activity (pH stability)” value ([7]; buffer, 0.5 h, pH 7.2) was ≥ 80% and the “specific activity of FcDH” value ([7]; purified preparation, 10 mM L-fucitol, 1 mM NAD, pH 9.5, 30° C.) was 7.8 U/mg.
